Assays:
[1] = target: T1, Signal transducer and activator of transcription 5A (Homo sapiens, UniProt P42229); assay: Inhibition of Stat5 phosphorylation in human SET2 cells after 1 hr by Western blotting
T1 sequence (P42229 whole entry): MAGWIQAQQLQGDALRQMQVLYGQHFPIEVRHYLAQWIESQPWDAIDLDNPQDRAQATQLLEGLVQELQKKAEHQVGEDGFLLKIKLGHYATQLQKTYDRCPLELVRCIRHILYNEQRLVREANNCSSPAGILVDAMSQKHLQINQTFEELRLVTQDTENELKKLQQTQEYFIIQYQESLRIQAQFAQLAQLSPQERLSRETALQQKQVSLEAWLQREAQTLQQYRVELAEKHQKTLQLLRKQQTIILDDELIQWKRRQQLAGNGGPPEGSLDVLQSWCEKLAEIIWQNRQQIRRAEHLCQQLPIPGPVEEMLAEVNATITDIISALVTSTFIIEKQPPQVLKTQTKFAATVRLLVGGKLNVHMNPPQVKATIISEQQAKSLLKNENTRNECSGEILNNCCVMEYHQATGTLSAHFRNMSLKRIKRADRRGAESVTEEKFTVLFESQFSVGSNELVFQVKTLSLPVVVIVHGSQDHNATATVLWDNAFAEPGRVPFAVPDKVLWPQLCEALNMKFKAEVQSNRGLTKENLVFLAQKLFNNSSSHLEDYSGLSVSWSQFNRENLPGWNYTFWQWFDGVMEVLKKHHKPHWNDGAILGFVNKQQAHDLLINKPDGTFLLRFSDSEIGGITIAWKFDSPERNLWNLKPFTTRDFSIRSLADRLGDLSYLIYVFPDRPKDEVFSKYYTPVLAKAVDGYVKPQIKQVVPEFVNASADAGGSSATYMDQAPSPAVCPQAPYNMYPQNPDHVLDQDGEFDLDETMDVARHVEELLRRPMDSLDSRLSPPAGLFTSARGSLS

[2] = target: T1, Signal transducer and activator of transcription 5A; assay: Inhibition of Stat5 phosphorylation in human HEL cells after 1 hr by Western blotting
[3] = target: T2, Signal transducer and activator of transcription 3 (Homo sapiens, UniProt P40763); assay: Inhibition of Stat3 phosphorylation in human SET2 cells after 1 hr by Western blotting
T2 sequence (P40763 whole entry): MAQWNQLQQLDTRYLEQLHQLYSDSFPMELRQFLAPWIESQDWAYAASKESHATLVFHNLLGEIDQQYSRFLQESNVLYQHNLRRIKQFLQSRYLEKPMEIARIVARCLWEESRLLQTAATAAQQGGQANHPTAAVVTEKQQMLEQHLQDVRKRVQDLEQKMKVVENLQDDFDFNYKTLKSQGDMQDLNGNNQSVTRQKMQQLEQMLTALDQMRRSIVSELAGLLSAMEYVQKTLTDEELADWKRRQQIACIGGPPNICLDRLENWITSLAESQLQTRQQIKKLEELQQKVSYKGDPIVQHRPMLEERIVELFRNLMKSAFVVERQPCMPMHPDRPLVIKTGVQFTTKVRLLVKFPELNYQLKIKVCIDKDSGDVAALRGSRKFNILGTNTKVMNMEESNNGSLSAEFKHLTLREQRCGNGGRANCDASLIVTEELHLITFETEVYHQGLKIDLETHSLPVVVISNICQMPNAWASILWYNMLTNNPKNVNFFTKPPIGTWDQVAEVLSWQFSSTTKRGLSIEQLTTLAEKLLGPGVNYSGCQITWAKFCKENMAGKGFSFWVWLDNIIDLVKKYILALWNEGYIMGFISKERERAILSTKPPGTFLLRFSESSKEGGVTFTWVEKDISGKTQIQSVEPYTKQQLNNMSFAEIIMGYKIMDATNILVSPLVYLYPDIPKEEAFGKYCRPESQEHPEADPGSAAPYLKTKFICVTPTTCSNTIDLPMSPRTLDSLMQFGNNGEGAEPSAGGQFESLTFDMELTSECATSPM

[4] = target: T2, Signal transducer and activator of transcription 3; assay: Inhibition of Stat3 phosphorylation in human HEL cells after 1 hr by Western blotting

- IC50 [1]: 25 nM
- IC50 [2]: 41 nM
- IC50 [3]: 23 nM
- IC50 [4]: 80 nM
SMILES: Cc1cc(Nc2nc(N[C@@H](C)c3ncc(F)cn3)ncc2Cl)[nH]n1 [5-Chloro-N2-[(1S)-1-(5-fluoropyrimidin-2-yl)ethyl]-N4-(5-methyl-1H-pyrazol-3-yl)pyrimidine-2,4-diamine]

— BindingDB's records for doi:10.1021/jm1011319 (AstraZeneca, 2011)
